Experiment [1] deals with T1, Type II 5α-Reductase from Human Prostate (Homo sapiens, UniProt P31213).
T1 construct: The same procedure as above was used for preparations using tissue from prostate surgery; from tissue; host or cells: human prostate tissue from surgery, homogenate, 100,000×g pellet
T1 sequence (P31213 1-254): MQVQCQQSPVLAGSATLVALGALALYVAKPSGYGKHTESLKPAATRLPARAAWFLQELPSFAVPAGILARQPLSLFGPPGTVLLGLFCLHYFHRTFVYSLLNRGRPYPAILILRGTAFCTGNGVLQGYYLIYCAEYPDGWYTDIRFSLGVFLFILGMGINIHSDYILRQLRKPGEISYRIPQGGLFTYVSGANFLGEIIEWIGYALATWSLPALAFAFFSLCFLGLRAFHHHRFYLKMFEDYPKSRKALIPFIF
Put plainly: Human Type II 5α-reductase assay (conversion of [3H]-testosterone to 5α-reduced metabolites). The experiment is classed as biochemical. The following applies: sodium acetate pH 5.5, 25°, 30 min, compared to control reaction mixtures; for percent inhibition of Type II AR: 0.3 μM; for inhibition at 0.3 µM: pH 5.5, 0.3 μM, read-out: percent inhibition of Type II AR.

The target in experiment [2] is T2, Type I 5α-Reductase from Human Scalp (Homo sapiens, UniProt P18405).
T2 construct: Scalp punch biopsies from graft recipient sites were obtained from human hair transplant procedures; from tissue; host or cells: human scalp punch biopsies (hair transplant graft recipient sites), homogenate, 100,000×g pellet
T2 sequence (P18405 1-259): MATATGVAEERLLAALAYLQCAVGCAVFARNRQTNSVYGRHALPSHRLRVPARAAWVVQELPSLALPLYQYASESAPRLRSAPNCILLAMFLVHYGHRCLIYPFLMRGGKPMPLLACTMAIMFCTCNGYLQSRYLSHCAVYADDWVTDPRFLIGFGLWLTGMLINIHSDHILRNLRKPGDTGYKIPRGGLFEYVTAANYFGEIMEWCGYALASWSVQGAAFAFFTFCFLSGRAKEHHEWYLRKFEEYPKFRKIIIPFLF
Put plainly: Human Type I 5α-reductase assay (conversion of [3H]-testosterone to 5α-reduced metabolites). The experiment is classed as biochemical. The conditions noted are these: 50 nM [3H]-testosterone, pH 7.5, 25°, 180 min, compared to control reaction mixtures; for inhibition at 0.3 µM: pH 7.5, 0.3 μM, read-out: percent inhibition of Type I AR; for percent inhibition of Type I AR: 0.3 μM.

Experimental findings from patent publication US5622962A, “5α-reductase inhibitors” (priority 1995, dated 1997) are described below.

“And” between values parts separate entries of the source, which are not always exact repeats. Equal values may be shown once.

What is called inhibition is the relative decrease from the control value, in per cent. Consider `CN1C(=O)CC[C@]2(C)c3ccc(SCc4cc5ccccc5cn4)cc3CC[C@@H]12` [Example 191, (+)-(4aR)-(10bR)-8-(3-isoquinolinylmethylthio)-4,10b-dimethyl-1,2,3,4,4a,5,6,10b-octahydrobenzo[f]quinoline-3-one], for which, in experiment [1], the “percent inhibition of Type II AR” value amounted to 28% and the inhibition at 0.3 µM was determined as 19%. For the same compound, the inhibition at 0.3 µM in experiment [2] is 65%.

For `CN1C(=O)CC[C@]2(C)c3ccc(-c4ccc(O)c(C=O)c4)cc3CC[C@@H]12` [Example 58, (+)-(4aR)-(10bR)-4-methyl-8-(3-formyl-4-hydroxyphenyl)-10b-methyl-1,2,3,4,4a,5,6,10b-octahydrobenzo[f]quinolin-3-one], the results for the inhibition at 0.3 µM in experiment [1] and in experiment [2] were 24% and 65%, respectively.

Turning to `CN1C(=O)CC[C@]2(C)c3ccc(-c4cnc5ccccc5c4)cc3CC[C@@H]12` [Example 201, (+)-(4aR)-(10bR)-4-methyl-8-(3-quinolinyl)-10b-methyl-1,2,3,4,4a,5,6,10b-octahydrobenzo[f]quinolin-3-one], the “percent inhibition of Type II AR” value in experiment [1] was 57%. Further, the inhibition at 0.3 µM in experiment [1] worked out at 60%; in experiment [2], 69%.

With `CN1C(=O)CC[C@]2(C)c3ccc(-c4ccccn4)cc3CC[C@@H]12` [Example 242, (+)-(4aR)-(10bR)-4-methyl-8-(2-pyridinyl)-10b-methyl-1,2,3,4,4a,5,6,10b-octahydrobenzo[f]quinolin-3-one], the inhibition at 0.3 µM in experiment [1] worked out at 24%; in experiment [2] it was 5%.

For the compound `CN1C(=O)CC[C@]2(C)c3ccc(Sc4nccs4)cc3CC[C@@H]12` [Example 149, (+)-(4aR)-(10bR)-4-methyl-8-(2-thiazoylthio)-10b-methyl-1,2,3,4,4a,5,6,10b-octahydrobenzo[f]quinolin-3-one], the figures for the inhibition at 0.3 µM in experiment [1] and in experiment [2] were 33% and 58%, respectively.

For the compound “(+)-(4aR)-(10bR)-8-(3-isoquinolinyl)-10b-methyl-3,4,4a,5,6,10b-hexahydrobenzo[f]quinolin-3-one [Example 142]”, the “percent inhibition of Type II AR” value in experiment [1] was 40%. For the same compound, the “percent inhibition of Type I AR” value in experiment [2] is 22%.

As for `CN1C(=O)CC[C@]2(C)c3ccc(-c4cc(F)c(F)cc4F)cc3CC[C@@H]12` [Example 128, (+)-(4aR)-(10bR)-4-methyl-8-(2,4,5-trifluorophenyl)-10b-methyl-1,2,3,4,4a,5,6,10b-octahydrobenzo[f]quinolin-3-one], the inhibition at 0.3 µM is 40% in experiment [1] and 82% in experiment [2].

In the case of `CN1C(=O)CC[C@]2(C)c3ccc(-c4ccc(COc5ccc(F)cc5)s4)cc3CC[C@@H]12` [Example 129, (+)-(4aR)-(10bR)-4-methyl-8-(2-[5-(4-fluorophenoxy-methyl)thienyl])-10b-methyl-1,2,3,4,4a,5,6,10b-octahydrobenzo[f]-quinolin-3-one], the inhibition at 0.3 µM came out at 36% in experiment [1] and 91% in experiment [2].

`CN1C(=O)CC[C@]2(C)c3ccc(Sc4nsc5ccccc45)cc3CC[C@@H]12` [Example 180, (+)-(4aR)-(10bR)-4-methyl-8-(3-[1,2-benzisothiazolyl]thio)-10b-methyl-1,2,3,4,4a,5,6,10b-octahydrobenzo[f]quinolin-3-one]: the inhibition at 0.3 µM stood at 30% in experiment [1] and 59% in experiment [2].

Regarding `CN1C(=O)CC[C@]2(C)c3ccc(-c4ccc(NC(=O)C(C)(C)C)nc4)cc3CC[C@@H]12` [Example 215, (+)-(4aR)-(10bR)-4-methyl-8-[2-(t-butylcarbonylamino)-5-pyridinyl]-10b-methyl-1,2,3,4,4a,5,6,10b-octahydrobenzo[f]-quinolin-3-one], the inhibition at 0.3 µM in experiment [1] stood at 42%; in experiment [2], 84%.

For the compound `CC(C)c1cccc2sc(-c3ccc4c(c3)CC[C@H]3N(C)C(=O)CC[C@]43C)nc12` [Example 264, (+)-(4aR)-(10bR)-4-methyl-8-(2-[4-isopropyl]benzothiazolyl)-10b-methyl-1,2,3,4,4a,5,6,10b-octahydrobenzo[f]quinolin-3-one], the inhibition at 0.3 µM is 45% in experiment [1] and 90% in experiment [2].

Regarding `CN1C(=O)CC[C@]2(C)c3ccc(-c4cccc5ccccc45)cc3CC[C@@H]12` [Example 53, (+)-(4aR)-(10bR)-4-methyl-8-(1-naphthyl)-10b-methyl-1,2,3,4,4a,5,6,10b-octahydrobenzo[f]quinolin-3-one], the inhibition at 0.3 µM in experiment [1] is 41%. Besides, the “percent inhibition of Type I AR” value in experiment [2] was 100% and 66%.

In the case of `CN1C(=O)CC[C@]2(C)c3ccc(-c4ccccc4C#N)cc3CC[C@@H]12` [Example 125, (+)-(4aR)-(10bR)-4-methyl-8-(2-cyanophenyl)-10b-methyl-1,2,3,4,4a,5,6,10b-octahydrobenzo[f]quinolin-3-one], the figures for the inhibition at 0.3 µM in experiment [1] and in experiment [2] were 36% and 64%, respectively.

In the case of `CN1C(=O)CC[C@]2(C)c3ccc(-c4ccc(C(C)(C)C)cc4)cc3CC[C@@H]12` [Example 75, (+)-(4aR)-(10bR)-4-methyl-8-(4-t-butylphenyl)-10b-methyl-1,2,3,4,4a,5,6,10b-octahydrobenzo[f]quinolin-3-one], the figures for the inhibition at 0.3 µM in experiment [1] and in experiment [2] were 40% and 63%, respectively.

Consider `CC(=O)N1CCc2cc(-c3ccc4c(c3)CC[C@H]3N(C)C(=O)CC[C@]43C)ccc21` [Example 238, (+)-(4aR)-(10bR)-4-methyl-8-(1-acetylindolin-5-yl)-10b-methyl-1,2,3,4,4a,5,6,10b-octahydrobenzo[f]quinolin-3-one], for which the inhibition at 0.3 µM is 29% in experiment [1] and 72% in experiment [2].

Turning to `COc1ccc2nc(Sc3ccc4c(c3)CC[C@H]3N(C)C(=O)CC[C@]43C)sc2c1` [Example 161, (+)-(4aR)-(10bR)-4-methyl-8-(6-methoxy-2-benzothiazolylthio)-10b-methyl-1,2,3,4,4a,5,6,10b-octahydrobenzo[f]quinolin-3-one], the inhibition at 0.3 µM in experiment [1] is 51%; in experiment [2] it was 71%.

With `CN1C(=O)CC[C@]2(C)c3ccc(Sc4cccc5cccnc45)cc3CC[C@@H]12` [Example 110, (4aR)-(10bR)-4,10b-dimethyl-8-(8-quinolinylthio)-1,2,3,4,4a,5,6,10b-octahydrobenzo[f]quinolin-3-one], the values for the inhibition at 0.3 µM in experiment [1] and in experiment [2] were 73% and 97%, respectively.

On to `C[C@]12CCC(=O)N[C@@H]1CCc1cc(Sc3ccccn3)ccc12` [Example 21, (4aR)-(10bR)-8-(2-pyridinylthio)-10b-methyl-1,2,3,4,4a,5,6,10b-octahydrobenzo[f]quinolin-3-one], for which the inhibition at 0.3 µM stood at 42% in experiment [1] and 27% in experiment [2].

On to `CN1C(=O)CC[C@]2(C)c3ccc(C(=O)c4ccccc4)cc3CC[C@@H]12` [Example 286, (4aR)-(10bR)-8-benzoyl-4,10b-dimethyl-1,2,3,4,4a,5,6,10b-octahydrobenzo[f]quinolin-3-one], for which the results for the inhibition at 0.3 µM in experiment [1] and in experiment [2] were 38% and 53%, respectively.

`CCCc1cccc2sc(Sc3ccc4c(c3)CC[C@H]3N(C)C(=O)CC[C@]43C)nc12` [Example 186, (+)-(4aR)-(10bR)-4-methyl-8-(4-propyl-2-benzothiazolylthio)-10b-methyl-1,2,3,4,4a,5,6,10b-octahydrobenzo[f]quinolin-3-one]: the inhibition at 0.3 µM in experiment [1] was 79%; in experiment [2] it was 90%.

`CN1C(=O)CC[C@]2(C)c3ccc(-c4nc5ccccc5o4)cc3CC[C@@H]12` [Example 251, (+)-(4aR)-(10bR)-4-methyl-8-(2-benzoxazolyl)-10b-methyl-1,2,3,4,4a,5,6,10b-octahydrobenzo[f]quinolin-3-one]: the results for the inhibition at 0.3 µM in experiment [1] and in experiment [2] were 36% and 69%, respectively.

Consider `CN1C(=O)CC[C@]2(C)c3ccc(CSc4ccccc4)cc3CC[C@@H]12` [Example 137, (4aR)-(10bR)-8-phenylthiomethyl-4,10b-dimethyl-1,2,3,4,4a,5,6,10b-octahydrobenzo[f]quinolin-3-one], for which the inhibition at 0.3 µM was determined as 37% in experiment [1] and 90% in experiment [2].

Turning to `CN1C(=O)CC[C@]2(C)c3ccc(Sc4nc(-c5ccccc5)cc5ccccc45)cc3CC[C@@H]12` [Example 177, (+)-(4aR)-(10bR)-4-methyl-8-(3-phenyl-1-isoquinolinylthio)-10b-methyl-1,2,3,4,4a,5,6,10b-octahydrobenzo[f]quinolin-3-one], the inhibition at 0.3 µM came to 15% in experiment [1] and 58% in experiment [2].

For the compound `CN1C(=O)CC[C@]2(C)c3ccc(CC(=O)Nc4ccccc4)cc3CC[C@@H]12` [Example 277, (4aR)-(10bR)-4,10b-dimethyl-8-phenylaminocarbonylmethyl-1,2,3,4,4a,5,6,10b-octahydrobenzo[f]quinolin-3-one], the inhibition at 0.3 µM stood at 40% in experiment [1] and 42% in experiment [2].
